Source: patent publication US20110039770A1, “INHIBITORS OF PROTEIN KINASE C ISOFORMS AND USES THEREOF” (PHARMAGAP INC., priority 2005, published 2011)

Tests used:
Assay in all cases: Tetracycline-induced expression of TIM 17 in IMR32 cells, PKC isoform level
Assay type in all cases: cell-based
[1] = biological target: PKC-α (Homo sapiens, UniProt P17252); set-up: endogenous PKC-α in (A) untreated human neuroblastoma (IMR-32) cells; endogenous in cells; host or cells: IMR-32 human neuroblastoma cells; settings: TIM 17 transfected cells + 150 ng/ml tetracycline 48 h; flow cytometry
Experimental: (§1) The specificity and efficacy of compound TIM 17 (see Table 28) was tested intracellularly on 3 PKC isoforms (α, δ and ε), which are the main isoforms expressed in the IMR32 neuroblastoma cell lines and neuroblastoma biopsies.
(§2) The synthetic TIM 17 gene was subcloned into the pREx-DEST31(7559) expression vector and transfected into IMR32 neuroblastoma cells using standard techniques. Transcription of the TIM 17 gene is under the control of a tetracycline promoter that allows gene expression to be switched on and off. Expression of the TIM 17 gene was elicited by treatment with 150 ng/ml of tetracycline for 48 h.
The data were acquired from 20,000 to 50,000 individual cells. The graph scales report the number of events measured at the peak of fluorescence while the percentage of cells positive to the specific anti-PKCalpha antibody is shown on the graphs together with the relative intensity (see number provided below the percentage). The relative intensity correlates to the mean intracellular level of PKCalpha in the cell population.
The expression level of PKC-α, δ and ε was also assessed by fluorescence imaging using anti-PKC antibodies from SantaCruz and secondary Alexa 488 conjugate from Invitrogen. Microscopic images were obtained from a Coulter microscope equipped with epifluorescence and the images analyzed with ImagePro+ software with the assistance of DAGE-MTI camera. […]

[2] = biological target: T1, PKC epsilon (Homo sapiens, UniProt Q02156); set-up: endogenous in cells; settings: fluorescence imaging; confirmed by Western blot
T1 sequence (Q02156 1-737): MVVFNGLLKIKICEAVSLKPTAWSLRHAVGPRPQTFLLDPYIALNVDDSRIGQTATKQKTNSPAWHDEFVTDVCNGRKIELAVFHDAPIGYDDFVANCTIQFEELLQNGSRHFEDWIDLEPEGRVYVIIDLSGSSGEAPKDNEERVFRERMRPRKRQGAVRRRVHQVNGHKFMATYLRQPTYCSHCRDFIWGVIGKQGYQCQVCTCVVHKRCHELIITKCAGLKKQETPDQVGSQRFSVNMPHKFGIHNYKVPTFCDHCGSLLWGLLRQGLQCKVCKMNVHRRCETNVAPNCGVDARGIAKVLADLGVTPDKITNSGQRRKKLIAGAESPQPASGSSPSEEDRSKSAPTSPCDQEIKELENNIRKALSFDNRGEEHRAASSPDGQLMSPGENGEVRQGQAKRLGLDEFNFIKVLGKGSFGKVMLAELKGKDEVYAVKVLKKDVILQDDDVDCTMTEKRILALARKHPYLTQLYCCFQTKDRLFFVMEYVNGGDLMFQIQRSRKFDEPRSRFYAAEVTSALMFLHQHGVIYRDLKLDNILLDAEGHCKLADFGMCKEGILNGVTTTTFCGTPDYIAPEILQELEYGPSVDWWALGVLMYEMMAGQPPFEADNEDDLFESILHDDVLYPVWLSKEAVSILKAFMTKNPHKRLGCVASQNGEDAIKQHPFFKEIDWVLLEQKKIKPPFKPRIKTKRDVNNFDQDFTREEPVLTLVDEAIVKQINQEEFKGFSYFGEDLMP
Experimental: as §1, §2
(§3) The expression level of PKC-α, δ and ε was also assessed by fluorescence imaging using anti-PKC antibodies from SantaCruz and secondary Alexa 488 conjugate from Invitrogen. Microscopic images were obtained from a Coulter microscope equipped with epifluorescence and the images analyzed with ImagePro+ software with the assistance of DAGE-MTI camera. The same gating was maintained constant for all images. […] The above results were also confirmed by Western blot.

[3] = biological target: PKC delta (Homo sapiens, UniProt Q05655); set-up: endogenous in cells; settings: fluorescence imaging; confirmed by Western blot
Chain of PKC delta (Q05655 whole entry): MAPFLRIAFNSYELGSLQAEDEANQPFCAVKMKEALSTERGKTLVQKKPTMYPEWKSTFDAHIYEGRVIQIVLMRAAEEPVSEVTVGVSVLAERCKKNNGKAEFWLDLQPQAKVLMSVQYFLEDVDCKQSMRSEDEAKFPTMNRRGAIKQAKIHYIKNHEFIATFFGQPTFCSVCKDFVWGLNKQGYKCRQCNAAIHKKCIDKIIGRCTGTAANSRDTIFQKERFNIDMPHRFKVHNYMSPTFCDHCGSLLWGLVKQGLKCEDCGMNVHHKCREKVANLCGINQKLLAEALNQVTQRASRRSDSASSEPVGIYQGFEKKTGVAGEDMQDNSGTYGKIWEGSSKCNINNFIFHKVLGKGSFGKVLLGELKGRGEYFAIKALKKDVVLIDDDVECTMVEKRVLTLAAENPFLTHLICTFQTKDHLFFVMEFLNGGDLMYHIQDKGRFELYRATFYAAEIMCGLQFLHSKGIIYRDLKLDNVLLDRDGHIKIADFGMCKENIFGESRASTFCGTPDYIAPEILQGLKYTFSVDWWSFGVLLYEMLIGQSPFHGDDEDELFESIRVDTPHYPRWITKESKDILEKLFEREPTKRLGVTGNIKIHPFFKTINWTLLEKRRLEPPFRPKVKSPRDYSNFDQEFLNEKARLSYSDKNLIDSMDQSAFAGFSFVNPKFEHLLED
Experimental: as §1, §2, §3

For FRRKFRL—(G)7—KDAQNLIGISI [TIM 17], the “percentage of cells expressing similar levels of PKCalpha as controls” value [1] was 30%, the “percentage of population with dramatic decrease in PKC alpha cellular content” value [1] was 69.8% and the “intracellular level of PKC epsilon” value [2] was “did not, however, alter the intracellular level”. The “intracellular level of PKC delta” value [3] was “did not, however, alter the intracellular level”.
